# Assay: Evaluation of Antiviral Activity of Compounds Against Human Coronavirus (HCov) 229E: Compounds were assayed using standard methods against multiple coronaviral strains, including HCoV 229E and OC43 strains. […] The antiviral activity of compounds was calculated based on the protection of the virus-induced CPE at each concentration normalized by the virus control.
row,SMILES,IC50
1,"N#CC1(NC(=O)[C@@H](CC2CC2)NC(=O)OCc2ccccc2)C[C@H]2CC[C@@H]1[C@H]1C(=O)NC(=O)[C@@H]21 (single isomer, unassigned; isomer 1)",> 30 µM
2,"COc1cccc2[nH]c(C(=O)N[C@H](CC3CC3)C(=O)N[C@@]3(C#N)CC4CCC3[C@H]3C(=O)NC(=O)[C@@H]43)cc12 (single isomer, unassigned; isomer 1)",> 30 µM

# From ChEMBL document CHEMBL5729382, “Inhibitors of cysteine proteases and methods of use thereof” (2022)
